Test results published in patent US20030215817A1, “Modulation of gene expression in formation of fatty atherosclerotic lesions” (priority 2003, published 2003).
Where a name gives a salt, the structure may show the parent alone.

Legend:
Assay type in all cases: in vivo, rabbit
REC1_17 (TCGT 199) mRNA = assay: TOGA analysis, REC1_17
Method: (§1) To perform the studies, New Zealand male rabbits weighing 2.0-2.5 kg (Charles River, Calco, Italy) were used. The rabbits were divided into three groups and maintained in identical experimental conditions: (1) control group (n=15); rabbits fed a cholesterol-rich diet; (2) lercanidipine-treated group (n=15); rabbits fed a cholesterol-rich diet and also treated with lercanidipine (3 mg/kg/week); and (3) (R)-lercanidipine-treated group (n=5); rabbits fed a cholesterol-rich diet and also treated with the (R)-enantiomer of lercanidipine (3 mg/kg/week). After a 2 week period of subcutaneous, once a week, pretreatment with 3 mg/kg/week of lercanidipine or (R)-lercanidipine, the rabbits received a daily cholesterol supplement for up to 8 weeks or 2 weeks, respectively. In the following examples, use of the term “lercanidipine” refers to the racemic mixture of lercanidipine hydrochloride, whereas “(R)-lercanidipine” refers to the (R)-enantiomer of lercanidipine hydrochloride.
(§2) The mRNA from the above-described groups was isolated from aorta at different time points, resulting in the following mRNA samples: (1) Day 0 Control=no administered cholesterol, no lercanidipine; (2) Day 0+lercanidipine=no administered cholesterol, treatment with lercanipidine (2 weeks; 3 mg/kg/week); (3) Day 14 Control=cholesterol diet for two weeks, no lercanidipine; (4) Day 14+lercanidipine=cholesterol diet for two weeks, treatment with lercanidipine (four weeks; 3 mg/kg/week); (5) Week 8 Control=cholesterol diet for 8 weeks, no lercanidipine; and (6) Week 8+lercanidipine=cholesterol diet for 8 weeks, treatment with lercanidipine (10 weeks; 3 mg/kg/week). In addition, Day 14+(R)-lercanidipine mRNA samples were prepared from rabbits given a cholesterol diet for two weeks and treated with 3 mg/kg/week (R)-lercanidipine for four weeks.
(§3) Aorta mRNAs were prepared in the following manner. First, the aortas from each experimental group were retrieved and shredded using a polytron homogenizer. The samples were further homogenized using a teflon pestle, after which the cellular debris, nuclei, and blood cells were pelleted by centrifugation. The supernatants were extracted twice with phenol-chloroform-isoamyl alcohol and once with chloroform-isoamyl alcohol. RNA was then precipitated from the aqueous phase with ethanol. The poly A+ mRNA was prepared using standard methods of polyA selection known in the art (Schriber et al., J. Mol. Biol., 142:93-116 (1980)).
(§4) The isolated mRNA was analyzed using a method of simultaneous sequence-specific identification of mRNAs known as TOGA, described in U.S. Pat. No. 5,459,037 and U.S. Pat. No. 5,807,680, hereby incorporated herein by reference. In a preferred embodiment, the TOGA method further comprised an additional PCR step performed using a mixture of four 5′ PCR primers and cDNA templates prepared from a population of antisense cRNAs. A final PCR step that used a mixture of 256 5′ PCR primers produced PCR products that were cDNA fragments that corresponded to the 3′-region of the starting mRNA population. The produced PCR products were then identified by: (a) the initial 5′ sequence comprising the sequence remainder of the recognition site of the restriction endonuclease used to cut and isolate the 3′ region plus the sequence of the preferably four parsing bases immediately 3′ to the remainder of the recognition site, preferably the sequence of the entire fragment; and (b) the length of the fragment. […]

[1] = tested on: REC1_20 (TTAC 210) mRNA, phosphofructo-1-kinase C isozyme; assay: TOGA analysis, REC1_20
Method: as §1, §2, §3, §4

REC1_16 (TCGG 195) mRNA = assay: TOGA analysis, REC1_16
Method: as §1, §2, §3, §4

[2] = tested on: REC1_13 (MspI GCCC 216) mRNA; assay: TOGA analysis, REC1_13
Method: as §1, §2, §3, §4

[3] = tested on: REC1_18 (MspI TGGT 241) mRNA; assay: TOGA analysis, REC1_18
Method: as §1, §2, §3, §4

[4] = tested on: REC1_12 (GCCC 232) mRNA, alpha smooth muscle actin; assay: TOGA analysis, REC1_12
Method: as §1, §2, §3, §4

REC1_5 (AGTG 184) mRNA = assay: TOGA analysis, REC1_5
Method: as §1, §2, §3, §4

[5] = tested on: REC1_36 (digital address TTAG 155) mRNA; assay: TOGA analysis, REC1_36
Method: as §1, §2, §3
The isolated mRNA was analyzed using a method of simultaneous sequence-specific identification of mRNAs known as TOGA, described in U.S. Pat. No. 5,459,037 and U.S. Pat. No. 5,807,680, hereby incorporated herein by reference. In a preferred embodiment, the TOGA method further comprised an additional PCR step performed using a mixture of four 5′ PCR primers and cDNA templates prepared from a population of antisense cRNAs. A final PCR step that used a mixture of 256 5′ PCR primers produced PCR products that were cDNA fragments that corresponded to the 3′-region of the starting mRNA population. The produced PCR products were then identified by: (a) the initial 5′ sequence comprising the sequence remainder of the recognition site of the restriction endonuclease used to cut and isolate the 3′ region plus the sequence of the preferably four parsing bases immediately 3′ to the remainder of the recognition site, preferably the sequence of the entire fragment; and (b) the length of the fragment. These two parameters, sequence and fragment length, were used to compare the obtained PCR products to a database of known polynucleotide sequences. Since the length of the obtained PCR products includes known vector sequences at the 5′ and 3′ ends of the insert, the sequence of the insert provided in the sequence listing is shorter than the fragment length that forms part of the digital address.
The method yields Digital Sequence Tags (DSTs), that is, polynucleotides that are expressed sequence tags of the 3′ end of mRNAs. […]

[6] = tested on: REC1_2 (MspI AATC 108) mRNA; assay: TOGA analysis, REC1_2
Method: as §1, §2, §3, §4

[7] = tested on: REC1_6 (MspI ATCC 176) mRNA, ferritin light chain subunit; assay: TOGA analysis, REC1_6
Method: as §1, §2, §3, §4

[8] = tested on: REC1_21 (TTCC 165) mRNA, elastin gene; assay: TOGA analysis, REC1_21
Method: as §1, §2, §3, §4

[9] = TOGA, hypercholesterolemic plus lercanidipine racemate, eight weeks, H2 (normocholesterolemic)=1.0
[10] = REC1_20 TTAC 210, rabbit aorta, cholesterol 14 days
[11] = REC1_13 GCCC 216, rabbit aorta, 14 days cholesterol
[12] = REC1_18 TGGT 241, rabbit aorta, cholesterol 14 days
[13] = REC1_12 GCCC 232, rabbit aorta, 14 days cholesterol
[14] = REC1_36 TTAG 155, rabbit aorta, cholesterol 14 days
[15] = REC1_21 TTCC 165, rabbit aorta, cholesterol 14 days

COC(=O)C1=C(C)NC(C)=C(C(=O)OC(C)(C)CN(C)CCC(c2ccccc2)c2ccccc2)C1c1cccc([N+](=O)[O-])c1 (racemic) [lercanidipine, lercanidipine hydrochloride]
level of gene expression (TOGA), 8 Week hypercholesterol + Lercanidipine (REC1_17 (TCGT 199) mRNA; REC1_17 TCGT 199, rabbit aorta, 8 weeks cholesterol, lercanidipine): 262
level of gene expression (TOGA), 14 Day hypercholesterol + Lercanidipine (REC1_17 (TCGT 199) mRNA; REC1_17 TCGT 199, rabbit aorta, 14 days cholesterol, lercanidipine): 713
level of gene expression (TOGA), Normal + Lercanidipine (REC1_17 (TCGT 199) mRNA; REC1_17 TCGT 199, rabbit aorta, no cholesterol, lercanidipine): 1434
Relative Abundance Rec1_17, TOGA, F (REC1_17 (TCGT 199) mRNA; [9]): 0.15
level of gene expression, 8 Week hypercholesterol + Lercanidipine ([1]; REC1_20 TTAC 210, rabbit aorta, cholesterol 8 weeks): 260
level of gene expression, 14 Day hypercholesterol + Lercanidipine [1, 10]: 348
level of gene expression, Normal + Lercanidipine ([1]; REC1_20 TTAC 210, rabbit aorta, no cholesterol): 607
Relative Abundance Rec1_20, TOGA, F [1, 9]: 0.3
level of gene expression (TOGA), 8 Week hypercholesterol + Lercanidipine (REC1_16 (TCGG 195) mRNA; REC1_16 TCGG 195, rabbit aorta, 8 weeks cholesterol, lercanidipine): 530
level of gene expression (TOGA), 14 Day hypercholesterol + Lercanidipine (REC1_16 (TCGG 195) mRNA; REC1_16 TCGG 195, rabbit aorta, 14 days cholesterol, lercanidipine): 1052
level of gene expression (TOGA), Normal + Lercanidipine (REC1_16 (TCGG 195) mRNA; REC1_16 TCGG 195, rabbit aorta, no cholesterol, lercanidipine): 2028
Relative Abundance Rec1_16, TOGA, F (REC1_16 (TCGG 195) mRNA; [9]): 0.2
level of gene expression, 8 Week hypercholesterol + Lercanidipine ([2]; REC1_13 GCCC 216, rabbit aorta, 8 weeks cholesterol): 4186
level of gene expression, 14 Day hypercholesterol + Lercanidipine [2, 11]: 542
level of gene expression, Normal + Lercanidipine ([2]; REC1_13 GCCC 216, rabbit aorta, no cholesterol): 575
Relative Abundance Rec1_13, TOGA, F [2, 9]: 5.9
level of gene expression, 8 Week hypercholesterol + Lercanidipine ([3]; REC1_18 TGGT 241, rabbit aorta, cholesterol 8 weeks): 935
level of gene expression, 14 Day hypercholesterol + Lercanidipine [3, 12]: 112
level of gene expression, Normal + Lercanidipine ([3]; REC1_18 TGGT 241, rabbit aorta, no cholesterol): 316
Relative Abundance Rec1_18, TOGA, F [3, 9]: 5.0
level of gene expression, 8 Week hypercholesterol + Lercanidipine ([4]; REC1_12 GCCC 232, rabbit aorta, 8 weeks cholesterol): 622
level of gene expression, 14 Day hypercholesterol + Lercanidipine [4, 13]: 5657
level of gene expression, Normal + Lercanidipine ([4]; REC1_12 GCCC 232, rabbit aorta, no cholesterol): 4929
Relative Abundance Rec1_12, TOGA, F [4, 9]: 0.1
level of gene expression (TOGA), 8 Week hypercholesterol + Lercanidipine (REC1_5 (AGTG 184) mRNA; REC1_5, AGTG 184, rabbit aorta, 8 weeks cholesterol + lercanidipine): 188
level of gene expression (TOGA), 14 Day hypercholesterol + Lercanidipine (REC1_5 (AGTG 184) mRNA; REC1_5, AGTG 184, rabbit aorta, 14 days cholesterol + lercanidipine): 699
level of gene expression (TOGA), Normal + Lercanidipine (REC1_5 (AGTG 184) mRNA; REC1_5, AGTG 184, rabbit aorta, no cholesterol, lercanidipine): 1034
Relative Abundance Rec1_5, TOGA, F (REC1_5 (AGTG 184) mRNA; [9]): 0.2
level of gene expression, 8 Week hypercholesterol + Lercanidipine ([5]; REC1_36 TTAG 155, rabbit aorta, cholesterol 8 weeks): 400
level of gene expression, 14 Day hypercholesterol + Lercanidipine [5, 14]: 683
level of gene expression, Normal + Lercanidipine ([5]; REC1_36 TTAG 155, rabbit aorta, no cholesterol): 186
Relative Abundance Rec1_36, TOGA, F [5, 9]: 0.5
level of gene expression of REC1_36 (TOGA) ([5]; aorta at day 14 of cholesterol administration, 3 mg/kg/week for 4 weeks): 683
level of gene expression of REC1_36 (TOGA) ([5]; aorta at week 8 of cholesterol administration, 3 mg/kg/week for 10 weeks): 400
level of gene expression (TOGA), 8 Week hypercholesterol + Lercanidipine ([6]; REC1_2, AATC 108, rabbit aorta, 8 weeks cholesterol + lercanidipine): 1143
level of gene expression (TOGA), 14 Day hypercholesterol + Lercanidipine ([6]; REC1_2, AATC 108, rabbit aorta, 14 days cholesterol + lercanidipine): 545
level of gene expression (TOGA), Normal + Lercanidipine ([6]; REC1_2, AATC 108, rabbit aorta, no cholesterol, lercanidipine): 301
Relative Abundance Rec1_2, TOGA, F [6, 9]: 6.5
level of gene expression (TOGA), 8 Week hypercholesterol + Lercanidipine ([7]; REC1_6, ATCC 176, rabbit aorta, 8 weeks cholesterol + lercanidipine): 1302
level of gene expression (TOGA), 14 Day hypercholesterol + Lercanidipine ([7]; REC1_6, ATCC 176, rabbit aorta, 14 days cholesterol + lercanidipine): 399
level of gene expression (TOGA), Normal + Lercanidipine ([7]; REC1_6, ATCC 176, rabbit aorta, no cholesterol, lercanidipine): 120
Relative Abundance Rec1_6, TOGA, F [7, 9]: 8.8
level of gene expression, 8 Week hypercholesterol + Lercanidipine ([8]; REC1_21 TTCC 165, rabbit aorta, cholesterol 8 weeks): 486
level of gene expression, 14 Day hypercholesterol + Lercanidipine [8, 15]: 1507
level of gene expression, Normal + Lercanidipine ([8]; REC1_21 TTCC 165, rabbit aorta, no cholesterol): 2064
Relative Abundance Rec1_21, TOGA, F [8, 9]: 0.2

COC(=O)C1=C(C)NC(C)=C(C(=O)OC(C)(C)CN(C)CCC(c2ccccc2)c2ccccc2)[C@@H]1c1cccc([N+](=O)[O-])c1 [Lercanidipine (R)]
level of gene expression (TOGA), 14 Day hypercholesterol + Lercanidipine (R) (REC1_17 (TCGT 199) mRNA; REC1_17 TCGT 199, rabbit aorta, 14 days cholesterol, (R)-enantiomer): 1117
level of gene expression, 14 Day hypercholesterol + Lercanidipine (R) [1, 10]: 669
level of gene expression (TOGA), 14 Day hypercholesterol + Lercanidipine (R) (REC1_16 (TCGG 195) mRNA; REC1_16 TCGG 195, rabbit aorta, 14 days cholesterol, (R)-enantiomer): 1554
level of gene expression, 14 Day hypercholesterol + Lercanidipine (R) [2, 11]: 404
level of gene expression, 14 Day hypercholesterol + Lercanidipine (R) [3, 12]: 330
level of gene expression, 14 Day hypercholesterol + Lercanidipine (R) [4, 13]: 3993
level of gene expression (TOGA), 14 Day hypercholesterol + Lercanidipine (R) (REC1_5 (AGTG 184) mRNA; REC1_5, AGTG 184, rabbit aorta, 14 days cholesterol + (R)-enantiomer): 643
level of gene expression, 14 Day hypercholesterol + Lercanidipine (R) [5, 14]: 500
level of gene expression (TOGA), 14 Day hypercholesterol + Lercanidipine (R) ([6]; REC1_2, AATC 108, rabbit aorta, 14 days cholesterol + (R)-enantiomer): 1250
level of gene expression (TOGA), 14 Day hypercholesterol + Lercanidipine (R) ([7]; REC1_6, ATCC 176, rabbit aorta, 14 days cholesterol + (R)-enantiomer): 365
level of gene expression, 14 Day hypercholesterol + Lercanidipine (R) [8, 15]: 1574
